Data reported in ChEMBL document CHEMBL5042500 (J Med Chem, 2022).
Converted amounts (≈) assume the structure as drawn. One block for each molecule: values may come before it. The source made the active and inactive calls. No cut-off for these calls is given here.

Legend:
[1] = Photostability of compound; type: physicochemical
hERG (KCNH2) [2] = molecular target: T1, hERG (KCNH2) (Homo sapiens, UniProt Q12809); assay: Inhibition of human ERG at 1 uM relative to control; type: toxicity
[3] = Effect on chondrocyte hypertrophic differentiation mouse ATDC-5 cells assessed as inhibition of […] gene expression incubated for 2 weeks followed by compound added and every 3 days medium is changed measured after 2 weeks by RT-qPCR analysis; type: functional, cell-based
[4] = molecular target: Ribosomal protein S6 kinase alpha-1 (Homo sapiens) (UniProt Q15418); assay: Inhibition of RSK1 kinase (unknown origin) at 0.1 uM
[5] = Metabolic stability in Sprague-Dawley rat liver microsomes assessed as compound degradation in presence of NADPH measured after 20 mins; type: ADME, Microsome; settings: read-out: Drug degradation
Femur [6] = assay: (§1) Induction of chondrogenesis in femoral head cartilage isolated from C57BL/6 mouse model of osteoarthritis assessed as reduction in intensity of collagen type x staining incubated for 2 weeks in hypertrophic condition and twice for week medium is changed by immunohistochemical staining based analysis; type: functional, tissue-based
[7] = Metabolic stability in CD1 mouse liver microsomes assessed as compound degradation in presence of NADPH measured after 20 mins; type: ADME, Microsome; settings: read-out: Drug degradation
Cytochrome P450 3A4 [8] = molecular target: T2, Cytochrome P450 3A4 (Homo sapiens, UniProt P08684); assay: Inhibition of CYP3A4 in human liver microsomes using midazolam as substrate incubated for 10 mins by LC-MS/MS analysis; type: ADME
[9] = Distribution coefficient, logD of compound at pH 7.4 by chromatographic analysis; type: physicochemical; settings: octanol/water
[10] = Permeability in human Caco2 cells at 20 uM incubated for 120 mins by ESI-MS/MS analysis; type: ADME, cell-based; settings: Caco-2, read-out: permeability
Femur [11] = assay: as §1, with “x staining at 2 uM incubated for” for “x staining incubated for”; type: functional, tissue-based
Femur [12] = assay: as §1, with “x staining at 10 uM incubated for” for “x staining incubated for”; type: functional, tissue-based
[13] = molecular target: T3, Serine/threonine-protein kinase Sgk1 (Mus musculus, UniProt Q9WVC6); assay: Inhibition of mouse SGK1 in presence 500 uM presence of ATP
T3 sequence (Q9WVC6 whole entry): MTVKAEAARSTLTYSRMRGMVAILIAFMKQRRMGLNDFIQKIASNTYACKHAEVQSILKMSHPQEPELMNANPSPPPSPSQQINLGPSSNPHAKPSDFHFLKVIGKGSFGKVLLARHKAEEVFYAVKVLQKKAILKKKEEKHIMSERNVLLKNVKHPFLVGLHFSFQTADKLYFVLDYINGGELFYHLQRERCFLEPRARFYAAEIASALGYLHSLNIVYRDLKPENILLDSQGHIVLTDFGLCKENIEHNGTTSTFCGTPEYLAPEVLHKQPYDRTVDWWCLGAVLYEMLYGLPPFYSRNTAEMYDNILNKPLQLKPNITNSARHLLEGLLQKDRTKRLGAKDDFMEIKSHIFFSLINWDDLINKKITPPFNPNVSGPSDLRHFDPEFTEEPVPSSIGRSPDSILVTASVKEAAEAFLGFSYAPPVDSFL

hERG (KCNH2) [14] = molecular target: T1, hERG (KCNH2); assay: Inhibition of human ERG at 10 uM; type: toxicity
[15] = Inhibition of rat SGK1 in presence 500 uM presence of ATP
CYP3A4 = CYP3A4 (Homo sapiens, UniProt P08684); assay: Inhibition of CYP3A4 in human liver microsomes by measuring maximum efficacy; type: ADME
Salmonella typhimurium [16] = assay: Mutagenicity in Salmonella typhimurium […] in presence of S9 fraction by ames test; type: toxicity, organism-based; settings: salmonella enterica subsp. enterica serovar typhimurium
[17] = Metabolic stability in human liver microsomes assessed as compound degradation in presence of NADPH measured after 20 mins; type: ADME, Microsome; settings: read-out: Drug degradation
[18] = Chemical stability of the compound at pH 7.4 measured after 24 hrs; type: physicochemical; settings: buffer, read-out: Stability
Cytochrome P450 3A4 [19] = molecular target: T2, Cytochrome P450 3A4; assay: Inhibition of CYP3A4 in human liver microsomes using testosterone as substrate incubated for 30 mins by LC-MS/MS analysis; type: ADME
Salmonella typhimurium [20] = assay: Mutagenicity in Salmonella typhimurium […] by ames test; type: toxicity, organism-based; settings: salmonella enterica subsp. enterica serovar typhimurium
[21] = Aqueous solubility of the compound at pH 7.4; type: physicochemical
[22] = molecular target: T4, Serine/threonine-protein kinase Sgk1 (Homo sapiens, UniProt O00141); assay: Inhibition of recombinant human SGK1 expressed in baculovirus expression system using 5-carboxyfluorescein -RPRAATF-NH2 as substrate preincubated for 30 mins followed by substrate addition in presence of 10 uM ATP and measured after 60 mins by microfluidics assay
T4 sequence (O00141 whole entry): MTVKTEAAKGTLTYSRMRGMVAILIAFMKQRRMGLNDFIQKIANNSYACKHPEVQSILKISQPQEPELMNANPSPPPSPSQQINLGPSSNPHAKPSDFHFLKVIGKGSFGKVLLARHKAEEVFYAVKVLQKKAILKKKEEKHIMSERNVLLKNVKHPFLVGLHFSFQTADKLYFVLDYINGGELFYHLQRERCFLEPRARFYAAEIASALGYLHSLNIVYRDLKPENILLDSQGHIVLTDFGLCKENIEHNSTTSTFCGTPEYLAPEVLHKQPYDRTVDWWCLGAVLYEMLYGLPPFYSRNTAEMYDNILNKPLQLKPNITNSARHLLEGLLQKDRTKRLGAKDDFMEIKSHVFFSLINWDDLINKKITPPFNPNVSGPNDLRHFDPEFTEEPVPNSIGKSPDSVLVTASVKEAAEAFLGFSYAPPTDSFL

[23] = molecular target: T4, Serine/threonine-protein kinase Sgk1; assay: Inhibition of recombinant human SGK1 expressed in baculovirus expression system using 5-carboxyfluorescein -RPRAATF-NH2 as substrate preincubated for 30 mins followed by substrate addition in presence of 500 uM ATP and measured after 60 mins by microfluidics assay
[24] = Solubility of the compound in FeSSIF at pH 5.0; type: physicochemical
[25] = Intrinsic clearance in human hepatocytes assessed per 10^-6 cells; type: ADME, cell-based, Hepatocyte

T2 sequence (P08684 whole entry): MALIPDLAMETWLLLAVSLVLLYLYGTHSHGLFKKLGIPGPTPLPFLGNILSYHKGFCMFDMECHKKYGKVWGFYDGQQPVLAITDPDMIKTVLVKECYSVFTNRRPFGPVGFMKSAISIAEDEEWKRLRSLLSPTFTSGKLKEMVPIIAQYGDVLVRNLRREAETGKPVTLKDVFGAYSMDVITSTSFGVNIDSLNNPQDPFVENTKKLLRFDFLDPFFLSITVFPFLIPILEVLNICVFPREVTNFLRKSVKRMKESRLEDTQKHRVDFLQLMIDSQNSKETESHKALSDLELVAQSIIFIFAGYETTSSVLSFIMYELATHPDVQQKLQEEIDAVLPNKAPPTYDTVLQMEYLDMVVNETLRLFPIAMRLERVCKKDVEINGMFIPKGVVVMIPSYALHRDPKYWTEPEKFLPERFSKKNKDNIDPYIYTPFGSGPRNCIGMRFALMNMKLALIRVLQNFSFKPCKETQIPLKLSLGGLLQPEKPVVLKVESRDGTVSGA
T1 sequence (Q12809 whole entry): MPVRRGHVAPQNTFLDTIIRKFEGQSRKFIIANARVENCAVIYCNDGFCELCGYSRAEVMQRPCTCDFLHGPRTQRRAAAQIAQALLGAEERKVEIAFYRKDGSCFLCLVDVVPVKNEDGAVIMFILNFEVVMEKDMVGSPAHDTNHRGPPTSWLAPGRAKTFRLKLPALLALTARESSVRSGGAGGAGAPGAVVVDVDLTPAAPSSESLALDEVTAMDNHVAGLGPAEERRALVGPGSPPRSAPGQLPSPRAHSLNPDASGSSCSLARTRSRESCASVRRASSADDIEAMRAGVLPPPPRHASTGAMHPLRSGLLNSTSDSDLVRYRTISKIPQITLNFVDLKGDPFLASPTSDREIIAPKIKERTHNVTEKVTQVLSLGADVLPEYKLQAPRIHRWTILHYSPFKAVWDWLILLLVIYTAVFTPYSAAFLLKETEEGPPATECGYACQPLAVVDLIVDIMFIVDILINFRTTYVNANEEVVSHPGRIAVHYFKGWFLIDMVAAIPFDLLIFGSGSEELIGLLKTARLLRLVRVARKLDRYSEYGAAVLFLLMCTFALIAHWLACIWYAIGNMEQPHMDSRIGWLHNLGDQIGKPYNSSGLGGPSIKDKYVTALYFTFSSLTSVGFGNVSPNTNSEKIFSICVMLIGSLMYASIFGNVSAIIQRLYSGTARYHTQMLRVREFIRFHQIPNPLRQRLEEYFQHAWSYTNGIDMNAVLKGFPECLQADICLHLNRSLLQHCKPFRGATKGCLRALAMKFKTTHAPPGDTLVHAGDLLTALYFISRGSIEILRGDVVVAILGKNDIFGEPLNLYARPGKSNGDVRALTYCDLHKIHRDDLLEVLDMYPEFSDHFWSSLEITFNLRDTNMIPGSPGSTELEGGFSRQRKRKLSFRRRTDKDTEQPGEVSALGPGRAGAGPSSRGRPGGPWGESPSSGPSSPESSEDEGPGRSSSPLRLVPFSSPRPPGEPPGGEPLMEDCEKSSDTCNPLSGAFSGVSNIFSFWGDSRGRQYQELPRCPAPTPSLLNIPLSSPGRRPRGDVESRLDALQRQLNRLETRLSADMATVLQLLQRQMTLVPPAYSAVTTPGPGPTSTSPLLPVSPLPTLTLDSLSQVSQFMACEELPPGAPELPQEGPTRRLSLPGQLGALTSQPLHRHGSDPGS
Sequence of CYP3A4 (P08684 whole entry): as the sequence (P08684 whole entry) above
Sequence of Ribosomal protein S6 kinase alpha-1 (Homo sapiens) (Q15418 whole entry): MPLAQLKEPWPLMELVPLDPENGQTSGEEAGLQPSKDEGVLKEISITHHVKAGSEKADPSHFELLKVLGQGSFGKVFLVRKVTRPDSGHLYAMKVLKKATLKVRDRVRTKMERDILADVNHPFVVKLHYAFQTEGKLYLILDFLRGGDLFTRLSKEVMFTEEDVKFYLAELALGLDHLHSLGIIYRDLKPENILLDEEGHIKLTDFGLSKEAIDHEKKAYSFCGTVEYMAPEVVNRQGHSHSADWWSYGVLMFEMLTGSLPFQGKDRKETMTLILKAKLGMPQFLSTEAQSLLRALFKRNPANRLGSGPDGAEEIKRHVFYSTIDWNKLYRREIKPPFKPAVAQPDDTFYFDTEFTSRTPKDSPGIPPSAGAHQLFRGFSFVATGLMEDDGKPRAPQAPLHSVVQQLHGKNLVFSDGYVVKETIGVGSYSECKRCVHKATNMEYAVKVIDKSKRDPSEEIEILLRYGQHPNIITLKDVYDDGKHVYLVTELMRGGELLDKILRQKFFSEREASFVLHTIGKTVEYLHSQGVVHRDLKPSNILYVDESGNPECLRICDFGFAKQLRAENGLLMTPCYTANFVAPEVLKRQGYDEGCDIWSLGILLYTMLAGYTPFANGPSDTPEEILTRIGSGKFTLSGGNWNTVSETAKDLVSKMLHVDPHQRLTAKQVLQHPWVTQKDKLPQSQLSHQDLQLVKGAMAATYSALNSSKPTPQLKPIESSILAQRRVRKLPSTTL

Stability [1]: 98.6%
Compound: Nc1n[nH]c2nc(-c3ccc(NS(=O)(=O)c4cc(Cl)c(F)cc4F)cc3)ncc12

Stability [1]: 99.3%
Compound: Nc1n[nH]c2nc(-c3ccc(NS(=O)(=O)c4cc(Cl)ccc4F)cc3)ncc12

inhibition [4]: 57%
metabolised at 20 min [5]: 7%
metabolised at 20 min [7]: 6%
IC50 (Cytochrome P450 3A4 [8]): > 3 µM
chromatographic logD [9]: 2.8
Papp at 2 h, 20 µM [10]: 8.6 ×10⁻⁶ cm/s
IC50 [13]: 253 nM
IC50 [15]: 358 nM
Emax (CYP3A4): 13%
metabolised at 20 min [17]: 13%
remaining at 24 h [18]: 100%
IC50 (Cytochrome P450 3A4 [19]): > 3 µM
solubility [21]: 4 µg/mL (≈ 7.72 µM)
Compound: O=S(=O)(Nc1ccc(-c2nc(O[C@H]3CC[C@H](O)CC3)c3cn[nH]c3n2)cc1)c1cc(Cl)ccc1F
inhibition at 1 µM (hERG (KCNH2) [2]): 0%
IC50 [3]: 50 nM
Activity (Femur [6]): Active
Activity (Femur [11]): inactive
Activity (Femur [12]): Active
inhibition at 10 µM (hERG (KCNH2) [14]): 65%
Activity (Salmonella typhimurium [16]): Non-Toxic
Activity (Salmonella typhimurium [20]): Non-Toxic

Stability [1]: 97.4%
Compound: Nc1n[nH]c2nc(-c3ccc(NS(=O)(=O)c4c(F)cc(F)cc4F)cc3)ccc12

Stability [1]: 10.1%
Compound: Nc1n[nH]c2nc(-c3ccc(NS(=O)(=O)c4cccc(Cl)c4Cl)cc3)ccc12

IC50 [22]: < 1 nM
IC50 [23]: 24 nM
Compound: CN(CCO)C(=O)c1cc(-c2ccc(NS(=O)(=O)c3cccc(Cl)c3Cl)cc2)nc2[nH]ncc12

IC50 [22]: 6 nM
IC50 [23]: < 1920 nM
Compound: CCNC(=O)c1cc(-c2ccc(NS(=O)(=O)c3cccc(Cl)c3Cl)cc2)nc2[nH]ncc12

Stability [1]: 46.1%
Compound: Nc1n[nH]c2nc(-c3ccc(NS(=O)(=O)c4ccccc4Cl)cc3)ccc12

IC50 [22]: 2 nM
IC50 [23]: 3 nM
Compound: Cc1n[nH]c2nc(-c3ccc(NS(=O)(=O)c4cc(Cl)ccc4F)cc3)nc(OC3CC(C)(C)N(C)C(C)(C)C3)c12

IC50 [22]: < 1 nM
IC50 [23]: < 1 nM
Compound: NCCNC(=O)c1cc(-c2ccc(NS(=O)(=O)c3cccc(Cl)c3Cl)cc2)nc2[nH]ncc12

IC50 [22]: < 2 nM
IC50 [23]: < 2 nM
Compound: Cc1n[nH]c2nc(-c3ccc(NS(=O)(=O)c4cc(Cl)ccc4F)cc3)nc(OC3CCC(O)CC3)c12 (stereo not drawn)

IC50 [22]: < 1 nM
IC50 [23]: < 1 nM
Compound: CN1CC(NC(=O)c2cc(-c3ccc(NS(=O)(=O)c4cccc(Cl)c4Cl)cc3)nc3[nH]ncc23)C1

IC50 [22]: 23 nM
IC50 [23]: 183 nM
Compound: CCOc1nc(-c2ccc(NS(=O)(=O)c3cc(Cl)ccc3F)cc2)nc2[nH]nc(C)c12

IC50 [22]: 1 nM
IC50 [23]: 35 nM
Compound: O=C(NC1CCN(CC2CC2)C1)c1cc(-c2ccc(NS(=O)(=O)c3cccc(Cl)c3Cl)cc2)nc2[nH]ncc12 (racemic)

IC50 [22]: 2 nM
IC50 [23]: 10 nM
Compound: Cc1n[nH]c2nc(-c3ccc(NS(=O)(=O)c4cc(Cl)ccc4F)cc3)nc(OCCCO)c12

Stability [1]: 87.2%
Compound: Nc1n[nH]c2nc(-c3ccc(NS(=O)(=O)c4cccc(Cl)c4F)cc3)ccc12

Stability [1]: 91.7%
Compound: Nc1n[nH]c2nc(-c3ccc(NS(=O)(=O)c4cc(Cl)ccc4F)cc3)ccc12

IC50 [22]: < 1 nM
IC50 [23]: 109 nM
Compound: CCN1CCC(CNC(=O)c2cc(-c3ccc(NS(=O)(=O)c4cccc(Cl)c4Cl)cc3)nc3[nH]ncc23)C1 (racemic)

IC50 [22]: 2 nM
IC50 [23]: 4 nM
Compound: Cc1n[nH]c2nc(-c3ccc(NS(=O)(=O)c4cc(Cl)ccc4F)cc3)nc(Oc3ccc(O)nc3)c12

IC50 [22]: 4 nM
IC50 [23]: 11 nM
Compound: Cc1n[nH]c2nc(-c3ccc(NS(=O)(=O)c4cc(Cl)ccc4F)cc3)nc(Oc3ccc(N)nc3)c12

IC50 [22]: 3 nM
IC50 [23]: 5 nM
Compound: Cc1n[nH]c2nc(-c3ccc(NS(=O)(=O)c4cc(Cl)ccc4F)cc3)nc(OCC(F)(F)CN)c12

IC50 [22]: 2 nM
solubility [24]: 17 µg/mL (≈ 30.5 µM)
CLH [25]: 0.02 mL/h
metabolised at 20 min [5]: 4%
metabolised at 20 min [7]: 11%
IC50 (Cytochrome P450 3A4 [8]): > 30 µM
chromatographic logD [9]: 3.4
Papp at 2 h, 20 µM [10]: 5 ×10⁻⁶ cm/s
Emax (CYP3A4): 3%
metabolised at 20 min [17]: 19%
remaining at 24 h [18]: 100%
IC50 (Cytochrome P450 3A4 [19]): > 30 µM
IC50 [23]: 4 nM
solubility [21]: < 1 µg/mL
Compound: Cc1n[nH]c2nc(-c3ccc(NS(=O)(=O)c4cc(Cl)ccc4F)cc3)nc(OC3CCN(C4CC4)CC3)c12
inhibition at 1 µM (hERG (KCNH2) [2]): 24%
IC50 [3]: 7 nM
inhibition at 10 µM (hERG (KCNH2) [14]): 5%
Activity (Salmonella typhimurium [16]): Non-Toxic
Activity (Salmonella typhimurium [20]): Non-Toxic

IC50 [22]: 1 nM
IC50 [23]: 1 nM
Compound: Cc1n[nH]c2nc(-c3ccc(NS(=O)(=O)c4cc(Cl)ccc4F)cc3)nc(OC3CCNCC3(F)F)c12 (stereo not drawn)

IC50 [22]: 19 nM
IC50 [23]: 2470 nM
Compound: Nc1nc(CNC(=O)c2cc(-c3ccc(NS(=O)(=O)c4cccc(Cl)c4Cl)cc3)nc3[nH]ncc23)cs1

IC50 [22]: 2 nM
IC50 [23]: 2 nM
Compound: Cc1n[nH]c2nc(-c3ccc(NS(=O)(=O)c4cc(Cl)ccc4F)cc3)nc(OCC3CNCCO3)c12 (stereo not drawn)

IC50 [22]: 4 nM
IC50 [23]: 38 nM
Compound: CC(C)N1CC[C@H](NC(=O)c2cc(-c3ccc(NS(=O)(=O)c4cccc(Cl)c4Cl)cc3)nc3[nH]ncc23)C1

IC50 [22]: 14 nM
IC50 [23]: 45 nM
Compound: CN1CCC(CNC(=O)c2cc(-c3ccc(NS(=O)(=O)c4cccc(Cl)c4Cl)cc3)nc3[nH]ncc23)C1 (racemic)

IC50 [22]: 55 nM
IC50 [23]: 265 nM
Compound: Cc1n[nH]c2nc(-c3ccc(NS(=O)(=O)c4cc(Cl)ccc4F)cc3)nc(OC3CCN(CC(F)(F)F)CC3)c12

IC50 [22]: 1 nM
IC50 [23]: 12 nM
Compound: O=C(NC1CCN(CCO)C1)c1cc(-c2ccc(NS(=O)(=O)c3cccc(Cl)c3Cl)cc2)nc2[nH]ncc12 (racemic)

IC50 [22]: 1 nM
IC50 [23]: 1 nM
Compound: Cc1n[nH]c2nc(-c3ccc(NS(=O)(=O)c4cc(Cl)ccc4F)cc3)nc(OCC3(CN)COC3)c12

IC50 [22]: < 2 nM
IC50 [23]: < 2 nM
Compound: Cc1n[nH]c2nc(-c3ccc(NS(=O)(=O)c4cc(Cl)ccc4F)cc3)nc(OCCCN)c12

IC50 [22]: < 1 nM
IC50 [23]: 327 nM
Compound: O=C(NCc1cocn1)c1cc(-c2ccc(NS(=O)(=O)c3cccc(Cl)c3Cl)cc2)nc2[nH]ncc12
